Laboratory results from patent EP3996814B1, “USE OF A HERBAL EXTRACT COMPRISING VERBASCOSIDE AND AUCUBIN FOR THE TREATMENT OF OSTEOARTHRITIS OF THE KNEE” (Labiotre S.r.l., priority 2019, dated 2021).

Legend:
human neutrophils = test: MTT cell viability test; format: cell-based; settings: 1% solution, 24 hours; untreated cells = 100%
Procedure: Human neutrophils were isolated from whole blood samples taken from 10 healthy volunteers (5 men and 5 women, mean age: 34.1 ± 3.7 years) using the EasySep™ Direct human neutrophil isolation kit ([…] Technologies, Vancouver, Canada). After isolation, neutrophils were resuspended at a concentration of 5 * 10^6 cells/ml in Hank's balanced saline solution (37°C) containing 10 mM of HEPES pH 7.4, 1.6 mM Ca^2+ and not Mg^2+.
Cell viability was determined using the MTT test kit (Promega, Madison, WI, USA) according to the manufacturer's protocol (MTT: 3-(4,5-dimethylthiazol-2-yl)-2,5-diphenyltetrazolium bromide). In order to determine the cytotoxicity of the herbal extract of the invention, the cells were incubated with aqueous solutions of the herbal extract of the invention at three different concentrations (1%, 3% and 5%) for 24 hours. The cultures of the control group were not treated and the viability thereof was set to 100%. […] Int J Pharm Sei (2012) 3: 2325-2336]. […] Absorbance was subsequently measured with a microplate reader (Bio-Tek, Winooski, VT, USA) at a test wavelength of 595 nm and a reference wavelength of 690 nm. The optical density (OD) was calculated as the […]. The viability percentage was calculated using the following formula: (OD of treated sample / control OD) x 100.

substance P = test: Serum substance P levels (ELISA) in the clinical study; settings: oral 200 mg/day, n = 50
PGE2 = PGE2 enzyme immunoassay in LPS-stimulated neutrophils; format: cell-based, human; settings: 5 µg/ml of LPS plus test substance 1%, 24 hours
Procedure: Human neutrophils were isolated from whole blood samples taken from 10 healthy volunteers (5 men and 5 women, mean age: 34.1 ± 3.7 years) using the EasySep™ Direct human neutrophil isolation kit ([sequence] Technologies, Vancouver, Canada). After isolation, neutrophils were resuspended at a concentration of 5 * 10^6 cells/ml in Hank's balanced saline solution (37°C) containing 10 mM of HEPES pH 7.4, 1.6 mM Ca^2+ and not Mg^2+.
Experiments were conducted on RPMI medium (RPMI: Rosewell Park Memorial Institute, cation-deficient medium Ca2+ and Mg2+ commonly used for white blood line cells) supplemented with 1% fetal bovine serum (37°C, 5% CO2, 95% humidity) after seeding neutrophils (5x10^5 cells/well) in a 96-well plate.
Evaluation of PGE2 concentrations in each well under six different experimental conditions was conducted using a commercially available competitive PGE2 enzyme immunoassay kit (GE Healthcare, Milwaukee, WI, USA). All tests were conducted three times.

[1] = system: patients with mild to moderate osteoarthritis of the knee; test: Randomised, single-blind, active-controlled pilot clinical study, clinical endpoints (VAS, range of motion, WOMAC); format: in vivo, human; settings: oral 200 mg/day, n = 50; for WOMAC scores Stiffness: range 0-8; for WOMAC scores Pain: range 0-20; for WOMAC scores Physical functionality: range 0-68; for WOMAC scores Total: range 0 to 96
Procedure: (§1) The inclusion criteria were as follows: 1) presence of symptoms for at least one month, 2) number of leukocytes in synovial fluid < 2000/ml, 3) pain on a visual analogue scale (VAS) ≥ 2 at rest and 4) duration of stiffness in the morning ≤ 30 min. The following exclusion criteria were applied: 1) pregnancy or breastfeeding, 2) history of severe renal, hepatic, cardiac, gastrointestinal or haematological diseases, 3) presence of malignant tumours, 4) presence of neurological or psychiatric disorders, 5) atopy or allergic disorders, 6) diabetes mellitus or other endocrine disorders, 7) coagulation disorders, 8) history of peptic ulcer disease, 9) use of corticosteroid in the four weeks prior to the study and 10) use of NSAIDs in the two weeks prior to the study. According to the Kellgren-Lawrence classification system, 61.3% and 38.7% of patients in the study had scores of 1 and 2, respectively.
The study period was two weeks.
Patients (n = 150) were randomised into three study groups (1:1:1 ratio). The randomisation sequence was generated by a special software.
A total of three assessments were performed (at baseline, one week and at the end of the 2-week treatment period).
Clinical endpoints included: • 1) patient's evaluation of the arthritis pain score (VAS) at rest (range: 0-10; where 0 is no pain and 10 is maximum pain), • 2) patient's evaluation of the arthritis pain score (VAS) at movement (range: 0-10; where 0 is no pain and 10 is maximum pain), • 3) joint motion range (degrees) and • 4) WOMAC (Western Ontario and McMaster University) index score [Salaffi et al. Osteoarthritis cartilage 2003; 11: 551-60].
WOMAC score consists of sub-scales that measure pain (range: 0-20; where 0 is no pain and 20 is the maximum pain), stiffness (range: 0-8, where 0 is no stiffness and 8 is the maximum stiffness) and physical functionality (range: 0-68, where 0 is the best functionality and 68 is the worst functionality). The resulting total composite score ranges from 0 to 96.

[2] = Safety in the clinical study (treatment-emergent adverse events, laboratory tests); format: in vivo, human; settings: oral 200 mg/day for 2 weeks, n = 50
Procedure: as §1
Safety was evaluated by recording treatment-emergent adverse events and changes with respect to the baseline in clinical laboratory tests, in vital signs and in objective examinations, all of which were performed during visits at weeks 1 and 2. Clinically relevant changes in laboratory values were defined as: • aspartate aminotransferase (AST) and/or alanine transaminase (ALT) ≥ 3 × upper limit of normal (ULN), • creatinine ≥ 1.3 × ULN, • blood urea nitrogen (BUN) ≥ 2 × ULN, • decrease in haematocrit value ≥ 5 percentage points with respect to the baseline and • decrease in haemoglobin value ≥ 2 g/dl from baseline.

## Cc1ccc(-c2cc(C(F)(F)F)nn2-c2ccc(S(N)(=O)=O)cc2)cc1 [Celecoxib]
Human neutrophils
  cell viability (MTT), % of the control value: 90 ± 2%
Substance P; Baseline
  SP (serum substance P): 436 ± 95 pg/mL
Substance P; End of study (2 weeks)
  SP (serum substance P): 299 ± 64 pg/mL
Substance P; One week
  SP (serum substance P): 358 ± 78 † pg/ml
PGE2
  PGE2 levels: 19.21 ± 2.39 pg/well
[1]; Baseline
  Pain at motion, VAS (0-10): 3.8 ± 0.6
  Pain at rest, VAS (0-10): 2.9 ± 0.4
  Range of motion (degrees): 134 ± 10 degrees
  WOMAC scores Stiffness: 1.4 ± 0.3
  WOMAC scores Pain: 5.7 ± 0.8
  WOMAC scores Physical functionality: 20.5 ± 3.2
  WOMAC scores Total: 27.6 ± 3.8
[1]; End of study (2 weeks)
  Pain at motion, VAS (0-10): 2.2 ± 0.4
  Pain at rest, VAS (0-10): 1.5 ± 0.4
  Range of motion (degrees): 173 ± 19 degrees
  WOMAC scores Stiffness: 0.7 ± 0.1
  WOMAC scores Pain: 3.0 ± 0.9
  WOMAC scores Physical functionality: 11.4 ± 1.7
  WOMAC scores Total: 15.1 ± 2.2
[1]; One week
  Pain at motion, VAS (0-10): 2.9 ± 0.5
  Pain at rest, VAS (0-10): 2.0 ± 0.3
  Range of motion (degrees): 160 ± 15 degrees
  WOMAC scores Stiffness: 1.0 ± 0.2
  WOMAC scores Pain: 4.1 ± 0.9
  WOMAC scores Physical functionality: 14.6 ± 2.1
  WOMAC scores Total: 19.7 ± 2.9
[2]
  Gastrointestinal adverse events: Constipation: 2 (4%) number of patients (percentages in brackets)
  Gastrointestinal adverse events: Nausea: 2 (4%) number of patients (percentages in brackets)
  Other adverse events: Headache: 3 (6%) number of patients (percentages in brackets)
  Other adverse events: Itching: 1 (2%) number of patients (percentages in brackets)
  changes with respect to the baseline in laboratory safety tests: no changes with respect to the baseline
